Test results from patent US9617225B2 (VIROSTATICS SRL, priority 2012, dated 2017).
Like-named read-outs stand apart in the source and are kept apart here.

Columns and labels:
[1] = target: human CDK9/CyclinT kinase complex (Homo sapiens (Human), UniProt P50750); test: In Vitro CDK9/CyclinT Assay (IMAP fluorescent polarization); type: biochemical
Method in brief: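 Phosphorylation of 400 nM TAMRA-Rbtide (15-mer retinoblastoma-derived peptide) by 5 nM CDK9/CyclinT with 12 μM ATP (=Kmapp) in 20 mM MOPS pH 7, 1 mM DTT, 10 mM MgCl2, 0.01% Tween 20. Reaction run 1 hour at room temperature, stopped with IMAP beads; read by fluorescence polarization.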

[2] = system: laboratory strain of HIV-1; test: Antiviral Activity Against HIV (AV), p24 in infected activated primary T cells; type: cell-based; conditions: for IC50: read-out: AV50, Table 5; for antiviral and antiproliferative activity and cytotoxicity profile / anti-HIV and cytotoxicity profile: summary in words
Method: Antiviral Activity Against HIV (AV)
Activated primary T cells are infected with a laboratory strain of HIV-1, then cultured and exposed to different concentrations of the test compounds. HIV replication is analysed by measuring the viral protein p24 and expressed as percentage of untreated control. Inhibition of viral replication (AV) is then calculated (AV=100 minus the % p24 compared to control, AV of control=0%). Inhibitory concentration 50% for antiviral activity (AV50) is calculated.

[3] = system: Primary T cells; test: Cytotoxicity, viability by flow cytometry; type: cell-based
Method: Primary T cells are cultured and treated with different concentrations of the test compound. Viability is analysed by measuring through flow cytometry based techniques the percentage of viable cells, compared to untreated control=100%).

[4] = Table 4, toxic dose 50%, viable cells

Sequence of human CDK9/CyclinT kinase complex (P50750 whole entry): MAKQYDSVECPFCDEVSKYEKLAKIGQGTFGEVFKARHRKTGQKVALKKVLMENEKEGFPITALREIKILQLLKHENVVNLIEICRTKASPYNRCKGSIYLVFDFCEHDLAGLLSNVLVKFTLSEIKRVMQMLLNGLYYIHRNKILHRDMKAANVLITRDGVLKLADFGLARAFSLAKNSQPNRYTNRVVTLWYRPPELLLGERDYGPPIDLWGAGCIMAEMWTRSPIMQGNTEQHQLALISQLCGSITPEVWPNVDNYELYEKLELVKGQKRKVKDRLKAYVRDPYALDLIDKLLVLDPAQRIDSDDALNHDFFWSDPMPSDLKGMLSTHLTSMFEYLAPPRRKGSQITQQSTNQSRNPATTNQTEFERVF
Sequence of human CDK9/CyclinT kinase complex (O60563 whole entry partner): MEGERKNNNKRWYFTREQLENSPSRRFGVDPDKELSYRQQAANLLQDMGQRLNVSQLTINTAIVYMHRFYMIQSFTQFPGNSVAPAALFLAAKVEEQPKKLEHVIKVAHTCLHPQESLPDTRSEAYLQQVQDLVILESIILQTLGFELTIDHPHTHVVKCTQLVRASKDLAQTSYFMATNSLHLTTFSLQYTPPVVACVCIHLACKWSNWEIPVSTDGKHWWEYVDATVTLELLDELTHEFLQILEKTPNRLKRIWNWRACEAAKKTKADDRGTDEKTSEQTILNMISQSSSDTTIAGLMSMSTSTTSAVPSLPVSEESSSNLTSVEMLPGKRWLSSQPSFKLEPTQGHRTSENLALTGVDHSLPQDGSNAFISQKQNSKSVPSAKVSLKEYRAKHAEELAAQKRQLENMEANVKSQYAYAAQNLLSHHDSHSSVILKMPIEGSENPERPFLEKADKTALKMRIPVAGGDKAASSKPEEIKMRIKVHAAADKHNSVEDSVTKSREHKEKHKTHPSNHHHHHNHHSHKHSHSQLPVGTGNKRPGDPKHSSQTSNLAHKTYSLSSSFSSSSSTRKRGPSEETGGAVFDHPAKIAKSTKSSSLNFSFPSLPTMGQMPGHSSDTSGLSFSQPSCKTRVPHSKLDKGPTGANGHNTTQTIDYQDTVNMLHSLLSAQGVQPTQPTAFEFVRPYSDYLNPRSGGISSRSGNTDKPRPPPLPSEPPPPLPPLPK

SMILES | IC50 [1] | IC50 ([1]; Table 1) | TD50 [3] | further results
COc1ccc(Nc2cc(-c3ccccc3OC)ncn2)cc1CN1C(=O)c2ccccc2C1=O [Example 3, 2-(2-Methoxy-5-(6-(2-methoxyphenyl)pyrimidin-4-ylamino)benzyl)isoindoline-1,3-dione] | < 1000 nM | – | – | IC50 [2]: > 1000 nM; TD50 [3, 4]: >5 µM; TD50 ([3]; Table 5): >5 µM
COc1ccccc1-c1cc(Nc2ccc(N(C)C)cc2)ncn1 [Example 5, N^1-(6-(2-methoxyphenyl)pyrimidin-4-yl)-N^4,N^4-dimethylbenzene-1,4-diamine] | – | < 1000 nM | – | antiviral and antiproliferative activity and cytotoxicity profile [2]: good antiviral and antiproliferative activity and a good cytotoxicity profile; TD50 [3, 4]: >10 µM
CNS(=O)(=O)Nc1cc(Nc2cc(-c3ccccc3OC)ncn2)ccc1OC [Example 10, (2-Methoxy-5-(6-(2-methoxyphenyl)pyrimidin-4-ylamino)phenyl)(methylsulfamoyl)amine] | – | < 100 nM | 3 µM | antiviral and antiproliferative activity and cytotoxicity profile [2]: good antiviral and antiproliferative activity and a good cytotoxicity profile
COc1ccccc1-c1cc(Nc2ccc(OC)c([N+](=O)[O-])c2)ncn1 [Example 11, N-(4-Methoxy-3-nitrophenyl)-6-(2-methoxyphenyl)pyrimidin-4-amine] | – | < 1000 nM | >1.5 µM | IC50 ([1]; Table 5): < 1000 nM; IC50 [2]: > 1500 nM
COc1ccccc1-c1cc(Nc2ccc(O)c([N+](=O)[O-])c2)ncn1 [Example 12, 4-(6-(2-methoxyphenyl)pyrimidin-4-ylamino)-2-nitrophenol] | – | < 1000 nM | >1.5 µM | IC50 ([1]; Table 5): < 1000 nM; IC50 [2]: > 1500 nM
COc1ccc(Nc2cc(-c3ccccc3OC)ncn2)cc1NS(=O)(=O)NC1CCCCC1 [Example 13, (2-Methoxy-5-(6-(2-methoxyphenyl)pyrimidin-4-ylamino)phenyl) (cyclohexylsulfamoyl)amine] | – | < 1000 nM | 5 µM | antiviral and antiproliferative activity and cytotoxicity profile [2]: good antiviral and antiproliferative activity and a good cytotoxicity profile
COc1ccccc1-c1cc(Nc2ccc(Cl)c(Cn3cnc4ccccc43)c2)ncn1 [Example 16, N-(3-((1H-benzo[d]imidazol-1-yl)methyl)-4-chlorophenyl)-6-(2-methoxyphenyl)pyrimidin-4-amine] | < 100 nM | – | 1.5 µM | antiviral and antiproliferative activity and cytotoxicity profile [2]: good antiviral and antiproliferative activity and a good cytotoxicity profile
COc1ccc(Nc2cc(-c3cccc(F)c3OC)ncn2)cc1N [Example 81, N^1-[6-(3-Fluoro-2-methoxy-phenyl)-pyrimidin-4-yl]-4-methoxy-benzene-1,3-diamine] | < 10000 nM | – | 3 µM | –
COc1ccc(Nc2cc(-c3ccc(F)cc3OC(C)C)ncn2)cc1N [Example 86, N^1-[6-(4-Fluoro-2-isopropoxy-phenyl)-pyrimidin-4-yl]-4-methoxy-benzene-1,3-diamine] | – | < 1000 nM | 4 µM | –
COc1ccccc1-c1cc(Nc2cc(N)c(OC)c(F)c2)ncn1 [Example 88, 5-Fluoro-4-methoxy-N^1-[6-(2-methoxy-phenyl)-pyrimidin-4-yl]-benzene-1,3-diamine] | < 1000 nM | – | >20 µM | –
CCOc1cc(F)ccc1-c1cc(Nc2cc(N)c(OC)c(F)c2)ncn1 [Example 89, N^1-[6-(2-Ethoxy-4-fluoro-phenyl)-pyrimidin-4-yl]-5-fluoro-4-methoxy-benzene-1,3-diamine] | – | < 1000 nM | >20 µM | –
COc1cc(F)ccc1-c1cc(Nc2cc(N)c(OC)c(F)c2)ncn1 [Example 90, 5-Fluoro-N^1-[6-(4-fluoro-2-methoxy-phenyl)-pyrimidin-4-yl]-4-methoxy-benzene-1,3-diamine] | < 1000 nM | – | >20 µM | –
COc1cc(F)c(Nc2cc(-c3ccccc3OC)ncn2)cc1N [Example 92, 4-Fluoro-6-methoxy-N^3-[6-(2-methoxy-phenyl)-pyrimidin-4-yl]-benzene-1,3-diamine] | – | < 10000 nM | >20 µM | –
CCOc1ccc(Nc2cc(-c3ccccc3OC)ncn2)cc1N [Example 101, 4-Ethoxy-N^1-[6-(2-methoxy-phenyl)-pyrimidin-4-yl]-benzene-1,3-diamine] | < 1000 nM | – | 12 µM | –
CCOc1ccc(Nc2cc(-c3ccc(F)cc3OC)ncn2)cc1N [Example 105, 4-Ethoxy-N^1-[6-(4-fluoro-2-methoxy-phenyl)-pyrimidin-4-yl]-benzene-1,3-diamine] | – | < 1000 nM | 7 µM | –
CCOc1ccc(Nc2cc(-c3ccc(F)cc3OC)ncn2)cc1O [Example 114, 2-Ethoxy-5-[6-(4-fluoro-2-methoxy-phenyl)-pyrimidin-4-ylamino]-phenol] | < 1000 nM | – | 10 µM | –
COc1ccc(Nc2cc(-c3ccc(F)cc3OC)ncn2)cc1NC(C)=O [Example 117, N-{5-[6-(4-Fluoro-2-methoxy-phenyl)-pyrimidin-4-ylamino]-2-methoxy-phenyl}-acetamide] | < 1000 nM | – | – | TD50 [3, 4]: >2 µM
COC(=O)Nc1cc(Nc2cc(-c3ccc(F)cc3OC)ncn2)ccc1OC [Example 118, {5-[6-(4-Fluoro-2-methoxy-phenyl)-pyrimidin-4-ylamino]-2-methoxy-phenyl}-carbamic acid methyl ester] | – | < 1000 nM | – | IC50 ([1]; Table 5): < 1000 nM; TD50 [3, 4]: >2 µM; TD50 ([3]; Table 5): >2 µM
COc1ccc(Nc2cc(-c3cc(F)ccc3OC)ncn2)cc1O [Example 122, 5-[6-(5-Fluoro-2-methoxy-phenyl)-pyrimidin-4-ylamino]-2-methoxy-phenol] | – | < 1000 nM | >2 µM | –
COc1ccc(Nc2cc(-c3ccc(F)cc3OC)ncn2)cc1OC(C)=O [Example 126, Acetic acid 5-[6-(4-fluoro-2-methoxy-phenyl)-pyrimidin-4-ylamino]-2-methoxy-phenyl ester] | < 1000 nM | – | – | TD50 [3, 4]: >2 µM
COc1ccccc1-c1cc(Nc2ccc(C(N)=O)c(Cl)c2)ncn1 [Example 132, 2-Chloro-4-[6-(2-methoxy-phenyl)-pyrimidin-4-ylamino]-benzamide] | – | < 1000 nM | >10 µM | IC50 ([1]; Table 5): < 1000 nM
COC(=O)c1ccc(Nc2cc(-c3ccccc3OC)ncn2)cc1OC [Example 133, 2-Methoxy-4-[6-(2-methoxy-phenyl)-pyrimidin-4-ylamino]-benzoic acid methyl ester] | – | < 1000 nM | >10 µM | IC50 ([1]; Table 5): < 1000 nM
COc1ccccc1-c1cc(Nc2cc(F)c(OC)c(C(N)=O)c2)ncn1 [Example 137, 3-Fluoro-2-methoxy-5-[6-(2-methoxy-phenyl)-pyrimidin-4-ylamino]-benzamide] | – | < 10000 nM | >2 µM | –
COc1cc(F)ccc1-c1cc(Nc2cc(F)c(OC)c(C(N)=O)c2)ncn1 [Example 138, 3-Fluoro-5-[6-(4-fluoro-2-methoxy-phenyl)-pyrimidin-4-ylamino]-2-methoxy-benzamide] | – | < 10000 nM | >20 µM | –
CCOc1cc(F)ccc1-c1cc(Nc2cc(F)c(OC)c(C(N)=O)c2)ncn1 [Example 139, 5-[6-(2-Ethoxy-4-fluoro-phenyl)-pyrimidin-4-ylamino]-3-fluoro-2-methoxy-benzamide] | – | < 10000 nM | >20 µM | –
COc1ccc(F)cc1-c1cc(Nc2cc(F)c(OC)c(C(N)=O)c2)ncn1 [Example 140, 3-Fluoro-5-[6-(5-fluoro-2-methoxy-phenyl)-pyrimidin-4-ylamino]-2-methoxy-benzamide] | – | < 10000 nM | >20 µM | –
CCOc1ccc(F)cc1-c1cc(Nc2cc(C(N)=O)c(OC)cc2F)ncn1 [Example 148, 5-[6-(2-Ethoxy-5-fluoro-phenyl)-pyrimidin-4-ylamino]-4-fluoro-2-methoxy-benzamide] | – | < 10000 nM | 1 µM | –
CN1CC[C@H](c2c(O)cc(O)c3c(=O)cc(-c4ccccc4Cl)oc23)[C@H](O)C1 [Flavopiridol, reference compound] | – | – | 0.1 µM | anti-HIV and cytotoxicity profile [2]: poor
CC[C@H](CO)Nc1nc(NCc2ccccc2)c2ncn(C(C)C)c2n1 [Roscovitine, reference compound] | – | – | – | anti-HIV and cytotoxicity profile [2]: poor; TD50 [3, 4]: 8 µM
